Tests used:
Type in all cases: cell-based
[1] = tested on: neonatal rat ventricular myocytes (NRVM); assay: ANF competition ELISA, secreted ANF in culture supernatants; set-up: ANF induction (secreted ANF in culture supernatants): dose or concentration left out as unconfirmed; settings: 48 hrs
Experimental: (§1) Neonatal rat ventricular myocyte (NRVM) preparation and culture. Hearts were dissected from 1 to 3 day-old Sprague-Dawley rats, minced, and digested with collagenase (Worthington; […]) and pancreatin (Sigma; 1× activity equivalent) in 1× Ads buffer (NaCl [116 mM], HEPES [20 mM; pH 7.4], NaH2PO4 [4.8 mM], KCl [5 mM], MgSO4 [[…]], and glucose [5.5 mM]). Cells were centrifuged through a step gradient of Percoll (Pharmacia) to separate myocytes from fibroblasts, and the myocyte pool was further enriched by pre-plating for 2 hours to remove adherent fibroblasts from the cell population. Cells were cultured overnight on dishes coated with gelatin (Sigma; 0.2%) in DMEM containing fetal bovine serum (FBS) (10%), L-glutamine (2 mM), and penicillin-streptomycin. […]
(§2) ANF competition ELISA and total protein measurements. […] Wells were washed 5× with TBS-T and exposed to TMB substrate (Kirkegaard & Perry; […]), which provides a colorimetric readout, for 30 minutes at room temperature. Reactions were terminated with H2SO4 (2N, […]) and absorbance at 450 nm detected using a Fusion Plate Reader (Perkin Elmer/Packard). […] Color development was allowed to proceed for 30 minutes prior to being measured at 595 nm using a micro-titer plate spectrophotometer (Molecular Devices).

[2] = tested on: neonatal rat ventricular myocytes (NRVM); assay: ANF protein by indirect immunofluorescence (perinuclear ANF); set-up: key to Perinuclear ANF: +, presence; −, absence; settings: for Perinuclear ANF: LMB 18.5 nM
Experimental: (§3) Neonatal rat ventricular myocyte (NRVM) preparation and culture. Hearts were dissected from 1 to 3 day-old Sprague-Dawley rats, minced, and digested with collagenase (Worthington; […]) and pancreatin (Sigma; 1× activity equivalent) in 1× Ads buffer (NaCl [116 mM], HEPES [20 mM; pH 7.4], NaH2PO4 [4.8 mM], KCl [5 mM], MgSO4 [[…]], and glucose [5.5 mM]). Cells were centrifuged through a step gradient of Percoll (Pharmacia) to separate myocytes from fibroblasts, and the myocyte pool was further enriched by pre-plating for 2 hours to remove adherent fibroblasts from the cell population. Cells were cultured overnight on dishes coated with gelatin (Sigma; 0.2%) in DMEM containing fetal bovine serum (FBS) (10%), L-glutamine (2 mM), and penicillin-streptomycin. After overnight culture, cells were washed with serum-free medium and maintained in DMEM supplemented with Neutridoma-SP (Roche Applied Science), which contains albumin, insulin, transferrin, and other defined organic and inorganic compounds, at either 0.1% or 0.3% v/v, as indicated.
Indirect immunofluorescence. NRVM (2.5×105) were plated on gelatin-coated 6-well dishes. Following the indicated treatments, cells were fixed with formalin (10%) in PBS, permeablized and blocked with PBS containing NP-40 (0.1%) and bovine serum albumin (BSA) (3%), and incubated in the same solution, but with primary antibodies for sarcomeric α-actinin (Sigma, mouse monoclonal; 1:200 dilution) or atrial natriuretic factor (ANF) (Peninsula Labs, rabbit polyclonal; 1:200 dilution). Cells were washed five times with PBS and incubated with fluorescein- or cy3-conjugated secondary antibodies (Jackson Labs, goat polyclonal; 1:200 dilution), followed by a brief incubation with Hoechst dye (Molecular Probes). Cells were washed five times in PBS, one time with water and sequentially covered with mounting solution (Molecular Probes, SlowFade) and glass coverslips. Proteins were visualized with an inverted fluorescence microscope (Olympus, BH-2) at 40× magnification and images captured using a digital camera (Roper Scientific, Photometrics).

[3] = tested on: neonatal rat ventricular myocytes (NRVM); assay: RNA dot blot analysis of fetal cardiac gene transcripts; settings: 48 hrs, LMB 18.5 nM (FIG. 2)
Experimental: as §3
RNA analysis. NRVM were plated on gelatin-coated 10 cm dishes (2×10^6 cells/dish). Following the indicated treatments, RNA was isolated from cardiomyocytes using Trizol Reagent (Gibco/BRL). Total RNA ([…]) was vacuum blotted onto nitrocellulose membranes (Bio-Rad) using a 96-well format dot blotter (Bio-Rad). Membranes were blocked in 4×SSC containing SDS (1%), 5× Denhardt's Reagent, sodium pyrophosphate (0.05%), and […] sonicated salmon sperm DNA (4 hrs at […]) and incubated with ^32P-end-labeled oligonucleotide probes (1×10^6 cpm/ml; 14 hrs at […]). Sequences of oligonucleotides were as follows: ANF, 5′-[…]-3; a-SK-actin 5′-[…]-3′; a-MHC 5′-[…]-3′; b-MHC 5′-[…]-3′; GAPDH 5′-[…]-3′). Blots were washed twice with 0.5×SSC containing SDS (0.1%; 10 minutes at […]) and analyzed by autoradiography.

[4] = tested on: neonatal rat ventricular myocytes (NRVM); assay: α- and β-myosin heavy chain cytoblot assay
Experimental: as §3
α- and β-myosin heavy chain cytoblot assay. […] Cells were washed three times with PBS containing BSA (1%), luminol (Pierce) was added, and luminescence detected using a Fusion Plate Reader (Perkin Elmer/Packard).

[5] = tested on: neonatal rat ventricular myocytes (NRVM); assay: Total cellular protein by Bradford assay
Experimental: as §1, §2

[6] = tested on: neonatal rat ventricular myocytes (NRVM); assay: Cell volume measurements by Coulter Counter; settings: 48 hours
Experimental: as §3
Cell volume measurements. Three-dimensional measurements of isolates NRVM were conducted using a Coulter Model Z2 instrument (Beckman), as previously described (Said et al., 2004). […] Cell volumes are expressed as […].

[7] = tested on: neonatal rat ventricular myocytes (NRVM); assay: Sarcomere organization, α-actinin indirect immunofluorescence; set-up: key: +, organized sarcomeres; −, disorganized sarcomeres; settings: 48 hrs, LMB 18.5 nM
Experimental: as §3
Indirect immunofluorescence. NRVM (2.5×105) were plated on gelatin-coated 6-well dishes. […] Proteins were visualized with an inverted fluorescence microscope (Olympus, BH-2) at 40× magnification and images captured using a digital camera (Roper Scientific, Photometrics).

[8] = tested on: neonatal rat ventricular myocytes (NRVM); assay: Toxicity: adenylate kinase (AK) release into culture medium; settings: 48 hours, LMB 18.5 nM (FIG. 6)
Experimental: as §1
Toxicity measurements. Adenylate kinase (AK) was measured in culture supernatants employing the bioluminescent ToxiLight kit (BioWhittaker) according to the manufacturer's instructions. Assays were run in a 96-well format and values measured using a Fusion Plate Reader (Perkin Elmer/Packard). Cell viability was also assessed using the LIVE/DEAD Viability/Cytotoxicity Kit (Molecular Probes). […]

[9] = tested on: neonatal rat ventricular myocytes (NRVM); assay: Viability: calcein AM / ethidium staining (LIVE/DEAD kit); set-up: key to Calcein Fluorescence / Ethidium Fluorescence: +, fluorescence; −, no fluorescence; settings: for Calcein Fluorescence / Ethidium Fluorescence: PE (20 μM), 48 hrs
Experimental: as §3
Toxicity measurements. Adenylate kinase (AK) was measured in culture supernatants employing the bioluminescent ToxiLight kit (BioWhittaker) according to the manufacturer's instructions. Assays were run in a 96-well format and values measured using a Fusion Plate Reader (Perkin Elmer/Packard). Cell viability was also assessed using the LIVE/DEAD Viability/Cytotoxicity Kit (Molecular Probes). This kit employs calcein AM fluorescent dye, which is retained by viable cells, and an ethidium homodimer, which only enters cells with damaged membranes.

[10] = tested on: neonatal rat ventricular myocytes (NRVM); assay: SERCA2 immunoblot analysis; settings: 48 hours, LMB 18.5 nM (FIG. 8)
Experimental: as §3
SERCA and MCIP immunoblot analysis. […] Protein concentrations were determined by Bradford Assay (Bio-Rad) and […] total protein resolved by SDS-PAGE with gradient gels (Invitrogen; 4%-20% polyacrylamide). […]

CCC(=C/[C@H](C)C/C=C/C(C)=C/[C@@H](C)C(=O)[C@@H](C)[C@H](O)[C@@H](C)C/C(C)=C/C(=O)O)/C=C/[C@@H]1OC(=O)C=C[C@@H]1C [LMB, leptomycin B]
ANF induction (secreted ANF in culture supernatants) ([1]; low nanomolar concentrations of LMB (FIG. 1)): efficiently blocked ANF induction
ANF immunostaining ([2]; NRVM stimulated with PE or FBS, LMB present): markedly reduced
ANF expression induced by prostaglandin F2a and endothelin-1 ([2]; NRVM, immunofluorescence, LMB 18.5 nM (Table 3)): efficiently blocked ANF expression
Perinuclear ANF ([2]; NRVM, stimulus ET-1 (50 nM)): −
Perinuclear ANF ([2]; NRVM, stimulus FBS (5%)): −
Perinuclear ANF ([2]; NRVM, stimulus PE (20 μM)): −
Perinuclear ANF ([2]; NRVM, stimulus PGF2a (10 μM)): −
PE-induced downregulation of α-MyHC transcripts [3]: inhibited the subtle downregulation
PE-induced β-MyHC mRNA expression [3]: repressed
PE-mediated induction of ANF mRNA transcripts [3]: effectively blocked
PE-mediated induction of α-skeletal actin (α-SK-actin) mRNA transcripts [3]: effectively blocked
PE-induced β-MyHC protein expression ([4]; 48 hrs, LMB 18.5 nM (FIG. 3)): repressed
T3-mediated coordinate regulation of α- and β-MyHC protein expression ([4]; T3 (3 nM), 48 hours, LMB 18.5 nM (FIG. 7)): no significant effect
Agonist-induced increase in total cellular protein content ([5]; PE or FBS, 72 hrs (text; FIG. 4 legend 48 hours), LMB 18.5 nM): effectively blocked
Cell size (cell volume, Coulter Counter) ([6]; LMB 18.5 nM (FIG. 5)): diminished cell size
Organized Sarcomeres ([7]; stimulus FBS (5%)): −
Organized Sarcomeres ([7]; stimulus PE (20 μM)): −
Adenylate kinase (AK) in culture medium [8]: did not increase AK
Ethidium bromide staining (compromised membranes) ([9]; LMB-treated cells (Table 5)): not significantly stained by ethidium bromide
Calcein dye retention (viability) ([9]; LMB-treated cells vs control cells (Table 5)): retained calcein dye as effectively as control cells
Calcein Fluorescence ([9]; LMB 2.3 nM): +
Ethidium Fluorescence ([9]; LMB 2.3 nM): −
Calcein Fluorescence ([9]; LMB 4.6 nM): +
Ethidium Fluorescence ([9]; LMB 4.6 nM): −
Calcein Fluorescence ([9]; LMB 9.25 nM): +
Ethidium Fluorescence ([9]; LMB 9.25 nM): −
Calcein Fluorescence ([9]; LMB 18.5 nM): +
Ethidium Fluorescence ([9]; LMB 18.5 nM): −
PE-induced downregulation of SERCA2 expression [10]: appeared to repress the modest downregulation
T3-induced SERCA2 protein expression ([10]; T3 (3 nM)): failed to alter

Cc1ccc2[nH]c3c(c2c1)CCCC3NC(=O)CCl (stereo not drawn) [compound 5219668, 2-chloro-N-(6-methyl-2,3,4,9-tetrahydro-1H-carbazol-1-yl)acetamide]
ANF induction in response to PE (secreted ANF) ([1]; PE (20 μM), 5219668 1.25 μM (FIG. 9)): efficiently blocked ANF induction
Agonist-induced increase in protein synthesis (total cellular protein) ([5]; PE (20 μM), 48 hours, 5219668 1.25 μM (FIG. 10)): effectively blocked the increases
Agonist-induced increase in cell size (cell volume) ([6]; PE (20 μM), 5219668 1.25 μM (FIG. 11)): effectively blocked the increases

From patent US20050288215A1, “Inhibition of nuclear export as a treatment for cardiac hypertrophy and heart failure” (priority 2004, published 2005)
